The source of these data is ChEMBL document CHEMBL1141886, “QSAR study on the antibacterial activity of some sulfa drugs: building blockers of Mannich bases” (2005).

Common to all, as to assay type: functional
Experiment [1] relates to Escherichia coli. In words: Antibacterial activity of compound against Escherichia coli at 10 ug/mL expressed as zone of inhibition.
Experiment [2] concerns Escherichia coli. As to the kind of experiment: Antibacterial activity of compound against Escherichia coli at 20 ug/mL expressed as zone of inhibition.
In experiment [3] the test system is Escherichia coli. In words: Antibacterial activity of compound against Escherichia coli at 40 ug/mL expressed as zone of inhibition.
The subject of experiment [4] is Escherichia coli. As to the kind of experiment: Antibacterial activity of compound against Escherichia coli at 80 ug/mL expressed as zone of inhibition.
Experiment [5] relates to Bacillus subtilis. As to the kind of experiment: Antibacterial activity of compound against Bacillus subtilis at 10 ug/mL expressed as zone of inhibition.
The test system of experiment [6] is Bacillus subtilis. As to the kind of experiment: Antibacterial activity of compound against Bacillus subtilis at 20 ug/mL expressed as zone of inhibition.
The subject of experiment [7] is Bacillus subtilis. In words: Antibacterial activity of compound against Bacillus subtilis at 40 ug/mL expressed as zone of inhibition.
Experiment [8] relates to Bacillus subtilis. In words: Antibacterial activity of compound against Bacillus subtilis at 80 ug/mL expressed as zone of inhibition.
Experiment [9] relates to Klebsiella pneumoniae. In words: Antibacterial activity of compound against Klebsiella pneumoniae at 10 ug/mL expressed as zone of inhibition.
Experiment [10] concerns Klebsiella pneumoniae. As to the kind of experiment: Antibacterial activity of compound against Klebsiella pneumoniae at 20 ug/mL expressed as zone of inhibition.
Experiment [11] concerns Klebsiella pneumoniae. As to the kind of experiment: Antibacterial activity of compound against Klebsiella pneumoniae at 40 ug/mL expressed as zone of inhibition.
For experiment [12], the system named is Klebsiella pneumoniae. As to the kind of experiment: Antibacterial activity of compound against Klebsiella pneumoniae at 80 ug/mL expressed as zone of inhibition.

`Cc1cc(C)nc(NS(=O)(=O)c2ccc(N)cc2)n1` [SULFAMETHAZINE]: the Zone of inhibition in the experiment on Escherichia coli [1] is reported as 15.1 mm; in the experiment on Escherichia coli [2] it was 16.9 mm; in the experiment on Escherichia coli [3], 18.8 mm; with Escherichia coli [4], 18.56 mm; in the experiment on Bacillus subtilis [5], 15.4 mm; with Bacillus subtilis [6], 19.96 mm. Besides, the results for the Zone of inhibition in the experiment with Bacillus subtilis [7] and in the experiment on Bacillus subtilis [8] were 21.76 mm and 22.08 mm, respectively.
`Cc1nnc(NS(=O)(=O)c2ccc(N)cc2)s1` [SULFAMETHIZOLE]: the Zone of inhibition in the experiment on Escherichia coli [1] is 16.2 mm; in the experiment on Escherichia coli [2], 17.43 mm; in the experiment on Escherichia coli [3], 22.2 mm; in the experiment with Escherichia coli [4], 25.5 mm; in the experiment with Bacillus subtilis [5], 18.06 mm; with Bacillus subtilis [6], 19.13 mm. The Zone of inhibition in the experiment on Bacillus subtilis [7] is reported as 19.46 mm; in the experiment with Bacillus subtilis [8] it was 20.5 mm; in the experiment on Klebsiella pneumoniae [9] it was 30.3 mm; with Klebsiella pneumoniae [10], 29.86 mm; in the experiment on Klebsiella pneumoniae [11], 29.6 mm; in the experiment on Klebsiella pneumoniae [12], 27.76 mm.
Regarding `Nc1ccc(S(N)(=O)=O)cc1` [SULFANILAMIDE], the Zone of inhibition in the experiment on Escherichia coli [1] worked out at 20.43 mm; in the experiment with Escherichia coli [2] it was 22.3 mm; in the experiment with Escherichia coli [3], 22.86 mm; in the experiment on Escherichia coli [4], 25.55 mm.
As to `Cc1cc(NS(=O)(=O)c2ccc(N)cc2)no1` [SULFAMETHOXAZOLE], the Zone of inhibition in the experiment on Escherichia coli [1] was 19.63 mm; in the experiment with Escherichia coli [2] it was 22.93 mm; with Escherichia coli [3], 23.23 mm; with Escherichia coli [4], 24.03 mm; in the experiment with Bacillus subtilis [5], 22.8 mm; in the experiment with Bacillus subtilis [6], 25.46 mm. In addition, the Zone of inhibition with Bacillus subtilis [7] is on record as 27.43 mm; in the experiment on Bacillus subtilis [8], 27.9 mm; with Klebsiella pneumoniae [9] it was 11.63 mm; in the experiment with Klebsiella pneumoniae [10], 14.92 mm; with Klebsiella pneumoniae [11] it was 22.43 mm; in the experiment on Klebsiella pneumoniae [12] it was 26.46 mm.
As for `N=C(N)NS(=O)(=O)c1ccc(N)cc1` [SULFAGUANIDINE], the Zone of inhibition in the experiment with Bacillus subtilis [5] came to 11.23 mm; in the experiment on Bacillus subtilis [6] it was 10.9 mm; with Bacillus subtilis [7], 17.9 mm; in the experiment on Bacillus subtilis [8], 21.76 mm.
With `Nc1ccc(S(=O)(=O)Nc2ncccn2)cc1` [SULFADIAZINE], the Zone of inhibition with Escherichia coli [1] worked out at 9.7 mm; in the experiment with Escherichia coli [2], 17.2 mm; in the experiment with Escherichia coli [3], 21.2 mm; with Escherichia coli [4], 24.5 mm; in the experiment on Bacillus subtilis [5], 20.86 mm; with Bacillus subtilis [6] it was 27.23 mm. Further, the Zone of inhibition in the experiment on Bacillus subtilis [7] came to 26.36 mm; with Bacillus subtilis [8] it was 25.93 mm; with Klebsiella pneumoniae [9], 27.03 mm; in the experiment on Klebsiella pneumoniae [10], 29.23 mm; in the experiment with Klebsiella pneumoniae [11], 29.53 mm; with Klebsiella pneumoniae [12], 25.63 mm.
